Biological target: T1, human Nav 1.7 channels stably expressed in HEK 293 cells (Homo sapiens, UniProt Q15858)
T1 construct: expressed in transfected cells; host or cells: HEK 293
Test: IonWorks Quattro automated patch-clamp, inactivated state block of Nav 1.7
Type: cell-based
Settings: double-pulse protocol, HEK 293 cells held at -100 mV, read-out: potency for the Nav 1.7 sodium ion channel (IC50, IonWorks)
Description: IonWorks® Experimental Procedure
Compounds were tested on human Nav 1.7 and Nav 1.5 channels stably expressed in HEK 293 cells. Sodium current measurements on IonWorks Quattro: An automated patch-clamp assay on the IonWorks Quattro platform (Molecular Devices) was used to measure state-dependent inhibition of human Nav 1.7 and Nav 1.5 channels. Cells were sealed on a planar substrate using the Population Patch Plate (PPC) technology. Electrical access was obtained using both nystatin and amphotericin. A double-pulse protocol was used for the determination of IC50 values for inactivated state block. Nav 1.7 and Nav 1.5 expressing cells were voltage clamped at −100 mV and −110 mV, respectively. A depolarizing prepulse to −10 mV (Nav 1.7) or −30 mV (Nav 1.5) for 1000 ms followed by a 10 ms repolarization to ˜100 mV (Nav1.7) or −110 mV (Nav 1.5) was given to generate fractional channel inactivation of ˜50%, followed by a 10 ms test pulse to −10 mV (Nav 1.7) or −30 mV (Nav 1.5) to measure peak current in control conditions and after compound addition. The following recording solutions were used (mM). External: 150 NaCl, 2 CaCl2, 5 KCl, 1 Mg Cl2, 10 HEPES, 12 Dextrose; internal: 120 CsF, 30 CsCl, 10 EGTA, 5 HEPES, 5 NaF, 2 MgCl2.
For all electrophysiology experiments, offline analysis was used to determine percent inhibition as a function of drug concentration. IC50 values were determined by fitting to the Hill equation.
The various compounds in Examples 1 through 4 and Tables 1 through 3 exemplified above were assayed for activity and selectivity using the foregoing IonWorks® technique. The results are reported in the following paragraph in a format expressing the identification of the compound with reference Example and compound (e.g. Ex 1-9 is Example 1, compound 9) followed by the observed potency in nM and the ratio of Nav1.7 potency: Nav1.5 potency as described here. Thus, Ex1-9: 1.7=65/ratio=641 identifies compound Example 1, compound 9 as having 65 nM potency for the Nav 1.7 sodium ion channel (as measured by IonWorks®) and a ratio of 641 Nav 1.7: Nav 1.5 potency, determined by IonWorks® measurement.

T1 sequence (Q15858 whole entry): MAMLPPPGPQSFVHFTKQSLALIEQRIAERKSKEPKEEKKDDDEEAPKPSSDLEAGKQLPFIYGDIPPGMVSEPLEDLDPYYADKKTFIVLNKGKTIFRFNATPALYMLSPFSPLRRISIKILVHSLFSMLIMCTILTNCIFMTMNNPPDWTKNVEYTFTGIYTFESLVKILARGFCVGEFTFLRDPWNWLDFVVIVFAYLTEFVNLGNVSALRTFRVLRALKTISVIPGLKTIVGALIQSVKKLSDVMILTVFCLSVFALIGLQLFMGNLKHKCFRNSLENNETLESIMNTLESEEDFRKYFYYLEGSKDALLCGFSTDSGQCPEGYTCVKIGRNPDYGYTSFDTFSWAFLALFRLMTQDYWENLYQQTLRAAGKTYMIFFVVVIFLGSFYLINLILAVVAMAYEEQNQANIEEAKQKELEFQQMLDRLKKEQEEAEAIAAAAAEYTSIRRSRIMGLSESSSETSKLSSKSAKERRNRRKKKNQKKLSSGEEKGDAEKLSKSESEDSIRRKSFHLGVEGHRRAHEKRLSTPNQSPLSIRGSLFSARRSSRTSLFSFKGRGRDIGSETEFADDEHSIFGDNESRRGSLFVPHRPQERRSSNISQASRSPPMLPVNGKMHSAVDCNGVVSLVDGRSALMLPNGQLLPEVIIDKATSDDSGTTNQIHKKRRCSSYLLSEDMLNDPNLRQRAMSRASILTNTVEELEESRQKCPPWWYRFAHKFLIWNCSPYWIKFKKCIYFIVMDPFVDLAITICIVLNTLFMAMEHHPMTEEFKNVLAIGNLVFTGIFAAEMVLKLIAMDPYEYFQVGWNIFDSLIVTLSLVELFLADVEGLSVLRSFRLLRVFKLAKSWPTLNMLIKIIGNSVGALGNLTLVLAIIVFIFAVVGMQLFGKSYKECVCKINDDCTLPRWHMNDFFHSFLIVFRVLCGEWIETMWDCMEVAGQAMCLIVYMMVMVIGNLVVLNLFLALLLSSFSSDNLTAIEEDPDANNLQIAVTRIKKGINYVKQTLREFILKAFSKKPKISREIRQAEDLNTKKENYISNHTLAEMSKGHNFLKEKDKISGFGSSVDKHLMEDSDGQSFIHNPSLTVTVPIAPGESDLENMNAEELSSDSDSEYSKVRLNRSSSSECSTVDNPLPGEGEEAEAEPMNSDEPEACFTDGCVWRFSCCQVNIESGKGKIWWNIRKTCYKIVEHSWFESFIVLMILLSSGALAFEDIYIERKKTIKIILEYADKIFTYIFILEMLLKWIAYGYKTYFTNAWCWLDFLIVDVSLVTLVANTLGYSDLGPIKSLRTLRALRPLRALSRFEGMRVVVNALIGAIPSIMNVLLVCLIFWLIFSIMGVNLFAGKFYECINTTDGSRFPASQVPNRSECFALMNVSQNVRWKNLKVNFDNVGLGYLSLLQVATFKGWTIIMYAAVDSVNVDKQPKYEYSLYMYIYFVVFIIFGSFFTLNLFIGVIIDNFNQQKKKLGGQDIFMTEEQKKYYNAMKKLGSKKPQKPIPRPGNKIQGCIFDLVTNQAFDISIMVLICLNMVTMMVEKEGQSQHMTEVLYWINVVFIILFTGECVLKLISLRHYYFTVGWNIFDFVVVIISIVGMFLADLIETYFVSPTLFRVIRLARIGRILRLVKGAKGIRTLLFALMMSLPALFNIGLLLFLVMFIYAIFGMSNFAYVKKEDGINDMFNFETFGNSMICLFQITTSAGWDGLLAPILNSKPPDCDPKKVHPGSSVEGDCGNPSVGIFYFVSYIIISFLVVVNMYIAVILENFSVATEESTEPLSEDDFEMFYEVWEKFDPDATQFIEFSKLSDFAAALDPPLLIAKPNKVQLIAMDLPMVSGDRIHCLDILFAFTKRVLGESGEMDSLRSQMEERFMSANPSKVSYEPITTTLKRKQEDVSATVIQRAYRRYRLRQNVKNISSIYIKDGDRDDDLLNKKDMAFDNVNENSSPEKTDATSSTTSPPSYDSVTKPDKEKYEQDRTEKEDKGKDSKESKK

| Compound | IC50 [nM] |
| --- | --- |
| O=S(=O)(Nc1nccs1)c1cc(Cl)c(NCCCCNCC2Cc3ccccc3CN2)cc1F (single isomer, unassigned) [Ex 1-19, (S or R)-5-chloro-2-fluoro-4-({4-[(1,2,3,4-tetrahydroisoquinolin-3-ylmethyl)amino]butyl}amino)-N-1,3-thiazol-2-ylbenzenesulfonamide] | 10 |
| O=S(=O)(Nc1nccs1)c1cc(Cl)c(NCCCCNCC2NCc3ccccc32)cc1F (single isomer, unassigned) [Ex 2-4 Enantiomer A, (R or S)-5-chloro-2-fluoro-4-((4-((isoindolin-1-ylmethyl)amino)butyl)amino)-N-(thiazol-2-yl)benzenesulfonamide] | 29 |
| O=S(=O)(Nc1nccs1)c1cc(Cl)c(NCCCCNCC2NCc3ccccc32)cc1F (single isomer, unassigned) [Ex 2-4 Enantiomer B, (S or R)-5-chloro-2-fluoro-4-((4-((isoindolin-1-ylmethyl)amino)butyl)amino)-N-(thiazol-2-yl)benzenesulfonamide] | 21 |
| NCC1CCN1CCCCNc1cc(F)c(S(=O)(=O)Nc2nccs2)cc1Cl (single isomer, unassigned) [Ex 16-52, (R or S)-4-({4-[2-(aminomethyl)-azetidin-1-yl]butyl}amino)-5-chloro-2-fluoro-N-1,3-thiazol-2-ylbenzene-sulfonamide] | 31 |
| O=S(=O)(Nc1nccs1)c1cc(Cl)c(NCCCCN[C@H]2CN[C@H](c3ccccc3)C2)cc1F [Ex 1-8, 5-chloro-2-fluoro-4-[(4-{[(3R,5S)-5-phenylpyrrolidin-3-yl]amino}butyl)amino]-N-1,3-thiazol-2-ylbenzenesulfonamide] | 11 |
| O=S(=O)(Nc1nccs1)c1cc(Cl)c(NCCCCNCC2Cc3ccccc3CN2)cc1F (stereo not shown) [Ex 1-9, 5-chloro-2-fluoro-4-({4-[(1,2,3,4-tetrahydroisoquinolin-3-ylmethyl)amino]butyl}amino)-N-1,3-thiazol-2-ylbenzenesulfonamide] | 13 |
| N[C@H]1CCN(CCCCNc2cc(F)c(S(=O)(=O)Nc3nccs3)cc2Cl)C1 [Ex 1-11, 4-({4-[(3S)-3-aminopyrrolidin-1-yl]butyl}amino)-5-chloro-2-fluoro-N-1,3-thiazol-2-ylbenzenesulfonamide] | 19 |
| O=S(=O)(Nc1nccs1)c1cc(Cl)c(NCCCCN2CCCC23CCNC3)cc1F (stereo not shown) [Ex 1-12, 5-chloro-4-{[4-(1,7-diazaspiro[4.4]non-1-yl)butyl]amino}-2-fluoro-N-1,3-thiazol-2-ylbenzenesulfonamide] | 66 |
| O=S(=O)(Nc1nccs1)c1cc(Cl)c(NCCCCN2CC3CCCNC3C2)cc1F (stereo not shown) [Ex 1-13, 5-chloro-2-fluoro-4-{[4-(octahydro-6H-pyrrolo[3,4-b]pyridin-6-yl)butyl]amino}-N-1,3-thiazol-2-ylbenzenesulfonamide] | 16 |
| O=S(=O)(Nc1nccs1)c1cc(Cl)c(NCCCCN2CC[C@@H]3CCNC[C@@H]32)cc1F [Ex 1-21, 5-chloro-2-fluoro-4-({4-[(3a5,7aR)-octahydro-1H-pyrrolo[2,3-c]pyridin-1-yl]butyl}amino)-N-1,3-thiazol-2-ylbenzenesulfonamide] | 21 |
| C[C@H](CNC1CCOCC1)NCCCCNc1cc(F)c(S(=O)(=O)Nc2nccs2)cc1Cl [Ex 1-26, 5-chloro-2-fluoro-4-[(4-{[(1R)-1-methyl-2-(tetrahydro-2H-pyran-4-ylamino)ethyl]amino}butyl)amino]-N-1,3-thiazol-2-ylbenzenesulfonamide] | 30 |
| NCC(NCCCCNc1cc(F)c(S(=O)(=O)Nc2nccs2)cc1Cl)c1ccccc1 (stereo not shown) [Ex 1-32, 4-({4-[(2-amino-1-phenylethyl)amino]butyl}amino)-5-chloro-2-fluoro-N-1,3-thiazol-2-ylbenzenesulfonamide] | 16 |
| O=S(=O)(Nc1nccs1)c1cc(Cl)c(NCCCCN2CCC3(CCNC3)C2)cc1F (stereo not shown) [Ex 1-38, 5-chloro-4-{[4-(2,7-diazaspiro[4.4]non-2-yl)butyl]amino}-2-fluoro-N-1,3-thiazol-2-ylbenzenesulfonamide] | 44 |
| O=S(=O)(Nc1nccs1)c1cc(Cl)c(NCCCCN2CCC23CCCNC3)cc1F (stereo not shown) [Ex 1-40, 5-chloro-4-{[4-(1,6-diazaspiro[3.5]non-1-yl)-butyl]amino}-2-fluoro-N-1,3-thiazol-2-yl-benzenesulfonamide] | 110 |
| NC1C2CN(CCCCNc3cc(F)c(S(=O)(=O)Nc4nccs4)cc3Cl)CC12 (stereo not shown) [Ex 1-42, 4-{[4-(6-amino-3-azabicyclo[3.1.0]hex-3-yl)butyl]amino}-5-chloro-2-fluoro-N-1,3-thiazol-2-ylbenzenesulfonamide] | 80 |
| NC1CCCN(CCCCNc2cc(F)c(S(=O)(=O)Nc3nccs3)cc2Cl)CC1 (stereo not shown) [Ex 1-43, 4-{[4-(4-aminoazepan-1-yl)butyl]amino}-5-chloro-2-fluoro-N-1,3-thiazol-2-ylbenzenesulfonamide] | 31 |
| NC1CN(CCCCNc2cc(F)c(S(=O)(=O)Nc3nccs3)cc2Cl)C1 [Ex 1-44, 4-{[4-(3-aminoazetidin-1-yl)butyl]amino}-5-chloro-2-fluoro-N-1,3-thiazol-2-ylbenzenesulfonamide] | 29 |
| NCC1(c2ccccc2)CCN(CCCCNc2cc(F)c(S(=O)(=O)Nc3nccs3)cc2Cl)CC1 [Ex 1-45, 4-({4-[4-(aminomethyl)-4-phenylpiperidin-1-yl]butyl}amino)-5-chloro-2-fluoro-N-1,3-thiazol-2-ylbenzenesulfonamide] | 110 |
| NCC1CCCN(CCCCNc2cc(F)c(S(=O)(=O)Nc3nccs3)cc2Cl)C1 (stereo not shown) [Ex 1-46, 4-({4-[3-(aminomethyl)piperidin-1-yl]butyl}amino)-5-chloro-2-fluoro-N-1,3-thiazol-2-ylbenzenesulfonamide] | 30 |
| NCc1ccccc1CNCCCCNc1cc(F)c(S(=O)(=O)Nc2nccs2)cc1Cl [Ex 3-4, 4-((4-((2-(aminomethyl)benzyl)amino)butyl)amino)-5-chloro-2-fluoro-N-(thiazol-2-yl)benzenesulfonamide] | 21 |
| O=S(=O)(Nc1ncc(F)s1)c1ccc(NCCCCNC[C@@H]2CCCN2)c(Cl)c1 [Ex 7-13, 3-chloro-N-(5-fluoro-1,3-thiazol-2-yl)-4-[(4-{[(2S)-pyrrolidin-2-ylmethyl]amino}butyl)amino]benzenesulfonamide] | 16 |
| O=S(=O)(Nc1nccs1)c1cc(Cl)c(NCCCCNC[C@@H]2CC[C@H](c3ccccc3)N2)cc1F [Ex 8-3, 5-chloro-2-fluoro-4-{[4-({[(2S,5R)-5-phenylpyrrolidin-2-yl]methyl}-amino)butyl]-amino}-N-1,3-thiazol-2-yl-benzenesulfonamide] | 13 |
| O=S(=O)(Nc1nccs1)c1cc(Cl)c(NCCCCNC[C@H]2NCC[C@@H]2c2ccccc2)cc1F [Ex 8-6, 5-chloro-2-fluoro-4-{[4-({[(2S,3R)-3-phenylpyrrolidin-2-yl]-methyl}amino)butyl]amino}-N-1,3-thiazol-2-ylbenzenesulfonamide] | 21 |
| O=S(=O)(Nc1nccs1)c1cc(Cl)c(NCCCCNC[C@@H]2C[C@H](c3ccccc3)CN2)cc1F [Ex 8-13, 5-chloro-2-fluoro-4-{[4-({[(2S,4R)-4-phenylpyrrolidin-2-yl]-methyl}amino)-butyl]amino}-N-1,3-thiazol-2-yl-benzenesulfonamide] | 16 |
| O=S(=O)(Nc1nccs1)c1cc(Cl)c(NCCCCNC[C@H]2CC(F)(F)CN2)cc1F [Ex 8-15, 5-chloro-4-{[4-({[(2R)-4,4-difluoropyrrolidin-2-yl]-methyl}amino)butyl]amino}-2-fluoro-N-1,3-thiazol-2-yl-benzenesulfonamide] | 66 |
| O=S(=O)(Nc1cccc(F)n1)c1cc(Cl)c(NCCCCCNC[C@@H]2CCCN2)cc1F [Ex 9-2, (S)-5-chloro-2-fluoro-N-(6-fluoropyridin-2-yl)-4-((5-((pyrrolidin-2-ylmethyl)amino)pentyl)amino)benzenesulfonamide] | 29 |
| O=S(=O)(Nc1nccs1)c1cc(Cl)c(NCCCCCNCC2CCCCN2)cc1F (stereo not shown) [Ex 9-03, 5-chloro-2-fluoro-4-({5-[(piperidin-2-ylmethyl)-amino]pentyl}amino)-N-1,3-thiazol-2-yl-benzenesulfonamide] | 19 |
| O=S(=O)(Nc1nccs1)c1cc(Cl)c(NCC(F)(F)CCNC[C@@H]2CCCN2)cc1F [Ex 11-11, 5-chloro-4-[(2,2-difluoro-4-{[(2S)-pyrrolidin-2-ylmethyl]amino}butyl)amino]-2-fluoro-N-1,3-thiazol-2-ylbenzenesulfonamide] | 49 |
